Laboratory results as given in US5414001A, “Antineoplastic pyrrolo[4,3,2-de]quinolin-8(1H)-ones” (American Cyanamid Company, priority 1993, dated 1995).
Values after ≈ are worked out from the molar mass of the structure shown. Where a name gives a salt, the structure may show the parent alone. Read-outs that look alike come from different tables or passages of the source.

How the values were obtained:
[1] = tested on: panel of >20 human tumor cell lines; experiment: In vitro tumor panel evaluation, Sulforhodamine B (SRB) cytotoxicity assay; format: cell-based; conditions: for IC50: Homo sapiens
[2] = tested on: Ovcar3 human ovarian carcinoma; set-up: species or system human tumor in Balb/C nu/nu athymic mice; conditions: in vivo
MIP / SW620 = experiment: SRB cytotoxicity ratio MIP/SW620 (MDR, P-glycoprotein resistance); format: cell-based, human; conditions: 2880 min
CaCo2 / CX1 [3] = conditions: human, Caco-2, 48 h
Experimental: (§1) The cytotoxic activity of the pyrrolo[4,3,2-de]quinolin-8(1H)-ones against a panel of >20 human tumor cell lines is determined using the Sulforhodamine B protein dye-binding colorimetric cytotoxicity assay (SRB) described by Skehan et al. (Journal National Cancer Institute 82:1107-1112, 1990), as modified by Monks et al., (Journal National Cancer Institute 83: 757-766, 1991). […] Positive controls (i.e., etoposide) are included in every experiment. Treatments are for 48 hours, after which cells are fixed in 10% trichloroacetic acid (10% final concentration), washed five times with deionized water and stained with SRB solution (0.4% in glacial acetic acid). Protein-bound stain is solubilized with 0.1 ml tris buffer and the adsorbance values are recorded with a microplate reader. Duplicate plates of cells are fixed with trichloroacetic acid at the time of drug addition to establish To values, as described by Monks et al. (JNCl, 83: 757-766, 1991). The effect of drug treatments over the five-long range of concentrations is calculated using the formula, T--To/C--To, to determine the IC50 values.
(§2) 3) The ratio values for DDP/S; CaCo2/CX1; MIP/SW620, and; HCT15/SKBR3 refer to the IC50 value for resistant cell lines included in the tumor cell panel, divided by the IC50 value for corresponding drug sensitive cell lines. For example, DDP is a Cisplatin resistant ovarian carcinoma cell line, and S is the corresponding parent drug sensitive ovarian carcinoma cell line (A2780). […] CaCo2 is a slow growing non P-glycoprotein multidrug resistant colon carcinoma cell line. MIP is a colon carcinoma cell line that expresses P-glycoprotein and is multidrug resistant; SW620 is a drug sensitive colon carcinoma cell line. HCT15 is a colon carcinoma cell line that is resistant to topoisomerase inhibitors and SKBR3 is a breast carcinoma that is very sensitive to topoisomerase inhibitors.

[4] = tested on: DDP (Cisplatin resistant ovarian carcinoma cell line) / S (A2780); experiment: SRB cytotoxicity ratio DDP/S (cisplatin resistance); format: cell-based, human
HCT15 / SKBR3 = experiment: SRB cytotoxicity ratio HCT15/SKBR3 (topoisomerase resistance); format: cell-based, human; conditions: 2880 min
CaCo2 / CX1 [5] = experiment: SRB cytotoxicity ratio CaCo2/CX1 (growth kinetics); conditions: IC50 resistant / IC50 sensitive cell line, 2880 min
Experimental: as §1, §2

BR513 = format: cell-based; conditions: 1000 microgram/ml; T = toxic
P388 murine leukemia = tested on: P388 murine leukemia; set-up: species or system murine (mice); conditions: mouse, in vivo
[6] = human, ddp/s ovarian carcinoma cells, 2880 min
[7] = Mean IC50 value for all 20 cell lines, 48 hours, read-out: AVG IC50
[8] = least sensitive cell line, 48 hours, read-out: MAX IC50
[9] = most sensitive cell line, 48 hours, read-out: MIN IC50
[10] = IC50 resistant / IC50 sensitive cell line, MDR (pglycoprotein) resistance
[11] = IC50 resistant / IC50 sensitive cell line, cisplatin resistance, 2880 min
[12] = IC50 resistant / IC50 sensitive cell line, topoisomerase resistance

Structure (SMILES)	CaCO2/CX1 IC50 ratio (CaCo2 / CX1 [3])	IC50 [1, 7] [µg/mL]	IC50 [1, 8] [µg/mL]	IC50 [1, 9] [µg/mL]	MIP/SW620 IC50 ratio (MIP / SW620; [10])	DDP/S IC50 ratio [4, 11]	HCT15/SKBR3 IC50 ratio (HCT15 / SKBR3; [12])	further results
COc1cc([C@@H]2c3cc4c(cc3[C@@H](O[C@@H]3O[C@@H]5CO[C@@H](C)O[C@H]5[C@H](O)[C@H]3O)[C@H]3COC(=O)[C@H]23)OCO4)cc(OC)c1O [Etoposide, etoposide, reference compound]	4.2							IC50 ([1]; 48 h, read-out: AVG IC50): 8.7 µg/mL (≈ 14.8 µM); IC50 ([1]; 48 h, read-out: MAX IC50): 27.9 µg/mL (≈ 47.4 µM); IC50 ([1]; 48 h, read-out: MIN IC50): 0.12 µg/mL (≈ 0.204 µM); Ovcar3 Min T/C % [2]: 62%; MIP/SW620 IC50 ratio (MIP / SW620; human, mip/sw620 cells): 1.9; cross resistance in the cisplatin resistant cell line DDP [4]: cross resistant; DDP/S IC50 ratio [4, 6]: 53.0; IC50 value of DDP higher than the parent cell line [4, 6]: 53 fold; HCT15/SKBR3 IC50 ratio (HCT15 / SKBR3; human, hct15/skbr3 cells): 22.3; HCT15 more resistant than SKBR3 (HCT15 / SKBR3; human, hct15/skbr3 cells): 22 fold
Cn1cc2ccnc3c2c1C(=O)C(N)=C3.O=C(O)C(F)(F)F [Example 2, 7-amino-1-methyl-pyrrolo[4,3,2-de]quinolin-8(1H)-one trifluoroacetate]		18	25.1	2.03	0.9	1.0	6.7	CaCO2/CX1 IC50 ratio (CaCo2 / CX1 [5]): 0.6
C[N+]1=C2C=C(N)C(=O)c3[nH]cc(c32)CC1 [Example 3, 7-amino-1,3,4,8-tetrahydro-5-methyl-8-oxo-pyrrolo[4,3,2-de]quinolinium trifluoroacetate]					1.1		1.9	CaCO2/CX1 IC50 ratio (CaCo2 / CX1 [5]): 0.3; BIA BR513 (BR513): 8T; IC50 ([1]; 48 h, read-out: AVG IC50): 1.7 µg/mL; IC50 ([1]; 48 h, read-out: MAX IC50): 10 µg/mL; IC50 ([1]; 48 h, read-out: MIN IC50): 0.06 µg/mL; Ovcar3 Min T/C % [2]: 37%; P388 ILS % (P388 murine leukemia): 18%
Cn1cc2c3c1C(=O)C(N/C=C/c1ccc(O)cc1)=CC3=NCC2.O=C(O)C(F)(F)F [Example 5, (E)-7-[[2-(4-hydroxyphenyl)ethenyl]amino]-1-methyl-3,4-dihydropyrrolo[4,3,2-de]quinolin-8(1H)-one trifluoroacetate]		2.3	3.44	1.23	1.1	1.1	0.3	CaCO2/CX1 IC50 ratio (CaCo2 / CX1 [5]): 1.5
CNC1=CC2=[N+](C)CCc3c[nH]c(c32)C1=O [Example 35, 1,3,4,8-Tetrahydro-5-methyl-7-(methylamino)-8-oxo-pyrrolo[4,3,2-de]quinolinium trifluoroacetate]	1.3	5.7	24.4	1.2	20.3	1.0	9.1	
CCCCCCCCN(CCCCCCCC)C1=CC2=[N+](C)CCc3c[nH]c(c32)C1=O [Example 39, 1,3,4,8-Tetrahydro-5-methyl-7-(dioctylamino)-8-oxo-pyrrolo[4,3,2-de]quinolinium trifluoroacetate]	4.8	0.8	2.71	0.19	9.0	1.7	122.0	
CC[C@]1(O)C[C@H]2CN(CCc3c([nH]c4ccccc34)[C@@](C(=O)OC)(c3cc4c(cc3OC)N(C=O)[C@H]3[C@@](O)(C(=O)OC)[C@H](OC(C)=O)[C@]5(CC)C=CCN6CC[C@]43[C@@H]65)C2)C1 [Vincristine, reference compound]								Ovcar3 Min T/C % [2]: 53%; P388 ILS % (P388 murine leukemia): > 91%

Second part, led by results:

CaCO2/CX1 IC50 ratio (CaCo2 / CX1 [3])	Structure (SMILES)	IC50 [1, 7] [µg/mL]	IC50 [1, 8] [µg/mL]	IC50 [1, 9] [µg/mL]	MIP/SW620 IC50 ratio (MIP / SW620; [10])	DDP/S IC50 ratio [4, 11]	HCT15/SKBR3 IC50 ratio (HCT15 / SKBR3; [12])	further results
19.8	C[N+]1=C2C=C(NCc3ccoc3)C(=O)c3[nH]cc(c32)CC1.O=C([O-])C(F)(F)F [Example 43, 7-[(3-Furanylmethyl)amino]-1,3,4,8-tetrahydro-5-methyl-8-oxo-pyrrolo[4,3,2-de]quinolinium trifluoroacetate]				90.8	1.6	78.5	AVG IC50 ([1]; Mean IC50 value for all 20 cell lines, 48 hours): 6.4 µg/mL; MAX IC50 ([1]; least sensitive cell line, 48 hours): 36.3 µg/mL; MIN IC50 ([1]; most sensitive cell line, 48 hours): 0.27 µg/mL
32.0	C[N+]1=C2C=C(NCc3cccc4ccccc34)C(=O)c3[nH]cc(c32)CC1 [Example 44, 1,3,4,8-Tetrahydro-5-methyl-7-[(1-naphthalenylmethyl)amino]-8-oxo-pyrrolo[4,3,2-de]quinolinium trifluoroacetate]	5.6	27.1	0.02	67.8	11.3	1140.0	
5.4	C[N+]1=C2C=C(NCc3ccccc3)C(=O)c3[nH]cc(c32)CC1 [Example 46, 1,3,4,8-Tetrahydro-5-methyl-8-oxo-7-[(phenylmethyl)amino]-pyrrolo[4,3,2-de]quinolinium trifluoroacetate]	7	22.3	0.2	8.3	1.6	113.0	
1.0	C[N+]1=C2C=C(NCc3ccc(O)cc3)C(=O)c3[nH]cc(c32)CC1 [Example 49, 1,3,4,8-Tetrahydro-7-[[(4-hydroxyphenyl)methyl]amino]-5-methyl-8-oxo-pyrrolo[4,3,2-de]quinolin-8 (1H)-one trifluoroacetate]	3.3	13.9	0.92	4.2	1.1	15.4	
0.8	CN1CCc2cn(C)c3c2C1=CC(=O)C3=O [Example 52, 1,3,4,5-Tetrahydro-1,5-dimethyl-pyrrolo[4,3,2-de]quinoline-7,8-dione]	25 (≈ 116 µM)	50 (≈ 231 µM)	12.3 (≈ 56.9 µM)	1.5	1.1	2.6	
1.4	C[N+]1=C2C=C(N)C(=O)c3c2c(cn3CCC#N)CC1 [Example 56, 7-Amino-1-(2-cyanoethyl)-1,3,4,8-tetrahydro-5-methyl-8-oxo-pyrrolo[4,3,2-de]quinolinium trifluoroacetate]	4.7	21.5	1.56	2.0	1.0	3.1	
34.0	C[N+]1=C2C=C(NCC(O)c3ccccc3)C(=O)c3[nH]cc(c32)CC1 (stereo not drawn) [Example 58, 1,3,4,8-Tetrahydro-7-[2-hydroxy-2-phenylethyl)amino]-5-methyl-8-oxo-pyrrolo[4,3,2-de]quinolinium trifluoroacetate]	11	50	0.22	167.0	1.5	227.0	
